The source of these data is PMC10661096, “Cryopreservation of assay-ready hepatocyte monolayers by chemically-induced ice nucleation: preservation of hepatic function and hepatotoxicity screening capabilities” (Biomaterials Science, 2023).

Several values for one entry are separate records, joined by “and”; a condition that tells them apart may be missing. Equal values may be shown once.

In assay [1] the test system is primary mouse hepatocytes. Nature of the assay: Post-thaw percentage cell recovery of monolayers in 96 well plates (Trypan Blue counts). The class given is cell-based. The conditions noted are these: primary mouse hepatocyte monolayers, 24 h post-thaw. The procedure:
(§1) HepG2 cells (density dependent on assay) and mouse hepatocytes (30k cell per well) were plated on rat tail type I collagen (100 μg mL^−1) coated 96 well plates and incubated for 24 hours. The cryoprotectant solution was prepared in advance. Hornbeam pollen (0.8 g) was suspended in sterile water (10 mL) for 24 h at 4 °C. The solution was sterile filtered and mixed 1 : 1 with either Eagle's minimum essential base medium (HepG2) or Williams E base medium (Mouse hepatocytes) supplemented with 20% FBS and 20% DMSO (final concentration 10%) to produce the cryopreservation formulation. The cell culture medium of the cells was replaced with 100 μL of the prechilled cryopreservation formulation (4 °C) and the plates were placed on a Corning XT CoolSink 96F and in a −80 °C freezer overnight. HepG2 cells and hepatocytes were also cryopreserved with 10% DMSO alone in cell culture medium for comparison. To thaw the cells, 150 μL of warm complete/thawing cell culture medium (37 °C) was added and the plates were placed in the incubator for 12 min. […]
(§2) HepG2 cells were cryopreserved between 1.6–30k cell per well and hepatocytes at a density of 30k cell per well. […] Freeze/Thaw and non-frozen HepG2 cells were counted daily until 80–90% confluency was reached to determine proliferation rates. […]

Assay [2] has as its system HepG2 cells. Described as above. The note with it: −80 °C, 24 h post-thaw, additives supplemented with 10% DMSO. It is filed as cell-based, Human. The procedure:
as §1, §2

A further assay has as its system A549 cells. Nature of the assay: Post-thaw percentage cell recovery of monolayers in 96 well plates. The class given is cell-based, Human. The conditions noted are these: 24 h post-thaw. The procedure:
°C and 150 µL of warm complete cell medium (37 °C) was added. The cells were placed in the incubator for 12 mins, to allow thawing, and the solutions were replaced with 200 µL of warm complete cell medium (37 °C). The cells were placed in the incubator for a further 24 h.
Percentage cell recovery was determined by dissociating cells with trypsin (0.25%) and EDTA (1 mM), staining the cells with trypan blue (to count membrane intact cells) and comparing cell counts immediately before and 24 h after freeze/thaw. A549 cells were cryopreserved using the same approach as confluent monolayers (20k cells/well) and varying cell densities (outlined throughout) as another comparative cell line, using Ham's F-12K (Kaighn's) Medium supplemented with 10% FBS and 1% PSA as the complete growth medium and Ham's F-12K (Kaighn's) Medium alone as the base medium. Cell recovery values were also obtained for plates containing A549 and HepG2 cells stored for over 1 month in a -80 °C freezer.
1.5 Assessing Cellular Health
HepG2 cells (7.5k cell/well) were seeded in collagen (12.7 µg/cm2) coated 96 well plates and A549 cells (7.5k cell/well) were seeded in collagen uncoated 96 well plates. The plates were freeze/thawed as described in section 1.4. […]

Assay [3] concerns HepG2 cells. Nature of the assay: Drug dose–response, resazurin reduction cell viability. The class given is cell-based. The note with it: Homo sapiens, HepG2, 24 h, 24 h treatment. The procedure:
Statistical analysis and data visualization were performed using GraphPad Prism 8 (La Jolla, California, USA). The Shapiro-Wilk test and Levene test were utilized to assess the normality of the data and equality of variances between groups. If the data met the assumptions of normality and equal variance, it was reported as mean ± SEM. Statistical significance between the means of 2 groups were assessed using an unpaired (independent) T-test and for 2+ groups a one-way analysis of variance (ANOVA), followed by Tukey's post hoc analysis, was used. […] Statistical significance between means was determined using Welch's t-test. The significance levels were represented as follows: not significant (ns) for p ≥ 0.05, * for p ≤ 0.05, ** for p ≤ 0.01, and **** for p ≤ 0.0001. Dose–response curves were generated using nonlinear regression with a variable slope (four parameters) fitted by the least squares regression method, without any weighting. GraphPad determined the EC50 values based on the fitting process. […] Fluorescence measurements were recorded with excitation and emission at 530/25 nm and 590/30 using a BioTek Synergy HT microplate reader. Wells with resazurin solution alone were also measured for background subtraction and cells untreated with pharmaceutically active compounds were measured as a maximum resazurin reduction value. […] Cell culture medium was replaced by cell culture media supplemented with acetaminophen (0–92.6 mM), diclofenac (0–3.4 mM), doxorubicin (0–9.2 mM), metformin (0–310 µM), phenformin (0–97.4 µM) and valproic acid (0–50 mM) and […] The cell culture medium was replaced with 100 µL of resazurin solution, prepared by dissolving 1 resazurin tablet (Scientific Laboratory Supplies, Nottingham, UK) in 50 mL of phenol-free DMEM/F-12 medium supplemented with 10% FBS and sterile filtered. The cells were incubated for 2 h in […] Fluorescence measurements were recorded with excitation and emission at 530/25 nm and 590/30 using a BioTek Synergy HT microplate reader. Wells with resazurin solution alone were also measured for background subtraction and cells untreated with pharmaceutically active compounds were measured as a maximum resazurin reduction value. Percentage cell viability was reported using the fluorescence readings using the following equation: Sample Fluorescence − Background Fluorescence x 100 Maximum (Untreated) Fluorescence − Background Fluorescence 1.7 Primary Hepatocyte Cryopreservation Mice were bred at the University of Warwick after local AWERB and Home Office approvals (PP3644080). Hepatocytes were isolated from adult (8- to 12-weeks old) male and female C57BL/6NCrl mice livers, via a two-step perfusion process. After cervical dislocation, the peritoneal cavity was open and a 27G needle was inserted into the vena cava. Perfusion was carried out through the vena cava at a flow rate of 6 mL.min-1 for 10 mins with buffers warmed S11
In general terms: The colour change of resazurin is a common sign of viable cells or microbes.

The subject of assay [4] is primary mouse hepatocytes. The description is as above. The conditions noted are these: Hepatocyte, 24 h, 24 h treatment. It is filed as cell-based.
Procedure: Non-frozen and freeze/thaw hepatocytes were treated with diclofenac (0–3.4 μM) and metformin (0–77.4 mM) and placed in a humidified environment at 37 °C and 5% CO2 for 24 h. The cell culture medium was replaced with 100 μL of resazurin solution and the cells were incubated for 2 h in a humidified environment at 37 °C and 5% CO2. Fluorescence measurements were recorded with excitation and emission at 530/25 nm and 590/30 using a BioTek Synergy HT microplate reader. […] Percentage cell viability was reported using the fluorescence readings using the following equation: [drawing 2]
The cell culture medium of freeze/thaw hepatocytes, produced in section 1.7, was replaced by
maintenance medium supplemented with diclofenac (0–3.4 mM) and metformin (0–77 µM)
and placed in a humidified environment at 37 °C and 5% CO2 for 24 h. The cell culture medium
(Scientific Laboratory Supplies, Nottingham, UK) in 50 mL of maintenance medium
supplemented with 10% FBS and sterile filtered. The cells were incubated for 24 h in a
humidified environment at 37 °C and 5% CO2. Fluorescence measurements were recorded with
𝑆𝑎𝑚𝑝𝑙𝑒 𝐹𝑙𝑢𝑜𝑟𝑒𝑠𝑐𝑒𝑛𝑐𝑒 − 𝐵𝑎𝑐𝑘𝑔𝑟𝑜𝑢𝑛𝑑 𝐹𝑙𝑢𝑜𝑟𝑒𝑠𝑐𝑒𝑛𝑐𝑒 x 100
𝑀𝑎𝑥𝑖𝑚𝑢𝑚 (𝑈𝑛𝑡𝑟𝑒𝑎𝑡𝑒𝑑) 𝐹𝑙𝑢𝑜𝑟𝑒𝑠𝑐𝑒𝑛𝑐𝑒 − 𝐵𝑎𝑐𝑘𝑔𝑟𝑜𝑢𝑛𝑑 𝐹𝑙𝑢𝑜𝑟𝑒𝑠𝑐𝑒𝑛𝑐𝑒
The subject of assay [5] is HepG2 cells. The note with it: cited from earlier work; for Post-thaw cell recovery after preconditioning: HepG2 cells and other cell lines, increased from approximately 10–20% ref 22,23.
Where [6] appears, read: Freeze/Thaw HepG2 cells (24 h post-thaw).
[7] abbreviates: Freeze/Thaw adherent primary mouse hepatocytes.
Setting [8] is: Non-frozen primary mouse hepatocytes.

Take `C[S+](C)[O-]` [10% DMSO, dimethyl sulfoxide]: the “Post-thaw percentage cell recovery” value in assay [1] was 50%; with HepG2 cells [2] it was 10% and 12.6%; in the assay with A549 cells it was 29%.
For the molecule `CC(=O)Nc1ccc(O)cc1` [Acetaminophen, acetaminophen], the EC50 (usually the midpoint of the concentration-response curve) with HepG2 cells [3] (setting [6]) worked out at 11700 µM; with HepG2 cells [3] (Non-frozen HepG2 cells), 14200 µM.
For the molecule `O=C(O)Cc1ccccc1Nc1c(Cl)cccc1Cl` [Diclofenac, diclofenac], the EC50 was determined as 880 µM in assay [4] (setting [7]) and 780 µM in assay [4] (setting [8]).
For the molecule `COc1cccc2c1C(=O)c1c(O)c3c(c(O)c1C2=O)C[C@@](O)(C(=O)CO)C[C@@H]3O[C@H]1C[C@H](N)[C@H](O)[C@H](C)O1` [Doxorubicin, doxorubicin], the EC50 with HepG2 cells [3] (setting [6]) was determined as 16.3 µM; in the assay with HepG2 cells [3] (Non-frozen HepG2 cells) it was 2 µM.
Take `CN(C)C(=N)N=C(N)N` [Metformin, metformin]: the EC50 in assay [4] (setting [7]) was determined as 600 µM; in assay [4] (setting [8]), 780 µM; with HepG2 cells [3] (setting [6]), 4280 µM; in the assay with HepG2 cells [3] (Non-frozen HepG2 cells) it was 3780 µM.
For the molecule `[H]/N=C(/N)N/C(=N/[H])NCCc1ccccc1` [Phenformin, phenformin], the EC50 amounted to 290 µM with HepG2 cells [3] (setting [6]) and 330 µM in the assay with HepG2 cells [3] (Non-frozen HepG2 cells).
On to `CCCC(CCC)C(=O)O` [VPA, valproic acid], for which the EC50 came out at 1790 µM with HepG2 cells [3] (setting [6]) and 2880 µM with HepG2 cells [3] (Non-frozen HepG2 cells).
In the case of `CC(C)CCC[C@@H](C)[C@H]1CC[C@H]2[C@@H]3CC=C4C[C@@H](O)CC[C@]4(C)[C@H]3CC[C@]12C.O` [cholesterol monohydrate], in the assay on HepG2 cells [2], the “Post-thaw percentage cell recovery” value is about 60%.
`O=C(O)[C@@H]1CCCN1` [proline]: in the assay with HepG2 cells [5], the “Post-thaw cell recovery after preconditioning” value is reported as 50%.
Take `OC[C@H]1O[C@H](O[C@H]2O[C@H](CO)[C@@H](O)[C@H](O)[C@H]2O)[C@H](O)[C@@H](O)[C@@H]1O` [trehalose]: in the assay with HepG2 cells [5], the “Post-thaw cell recovery after preconditioning” value is recorded as 50%. For the same molecule, the “Cell recovery after preconditioning with trehalose” value in the assay with HepG2 cells [5] (HepG2 monolayers ref 23) was 42%.
